Laboratory results reported in PubChem BioAssay (NCI).
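All cell lines were grown in 96-well plates and treated with compound for 48 hours. The concentration for full growth arrest is given as TGI.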

Tests used:
Test in all cases: NCI-60 cell line screen, 48 h
A498 renal = test system: A498 renal
A549 NSCLC = test system: A549 NSCLC
ACHN renal = test system: ACHN renal
CAKI-1 renal = test system: CAKI-1 renal
CCRF-CEM leukemia = test system: CCRF-CEM leukemia
COLO 205 colon = test system: COLO 205 colon
DLD-1 colon = test system: DLD-1 colon
DMS 114 small cell lung = test system: DMS 114 small cell lung
DMS 273 small cell lung = test system: DMS 273 small cell lung
EKVX NSCLC = test system: EKVX NSCLC
HCC-2998 colon = test system: HCC-2998 colon
HCT-116 colon = test system: HCT-116 colon
HCT-15 colon = test system: HCT-15 colon
HL-60(TB) leukemia = test system: HL-60(TB) leukemia
HOP-18 NSCLC = test system: HOP-18 NSCLC
HOP-62 NSCLC = test system: HOP-62 NSCLC
HOP-92 NSCLC = test system: HOP-92 NSCLC
HT29 colon = test system: HT29 colon
IGROV1 ovarian = test system: IGROV1 ovarian
K-562 leukemia = test system: K-562 leukemia
KM12 colon = test system: KM12 colon
KM20L2 colon = test system: KM20L2 colon
LOX IMVI melanoma = test system: LOX IMVI melanoma
LXFL 529 NSCLC = test system: LXFL 529 NSCLC
M14 melanoma = test system: M14 melanoma
M19-MEL melanoma = test system: M19-MEL melanoma
MALME-3M melanoma = test system: MALME-3M melanoma
MOLT-4 leukemia = test system: MOLT-4 leukemia
NCI-H226 lung = test system: NCI-H226 lung
NCI-H23 lung = test system: NCI-H23 lung
NCI-H460 lung = test system: NCI-H460 lung
NCI-H522 lung = test system: NCI-H522 lung
OVCAR-3 ovarian = test system: OVCAR-3 ovarian
OVCAR-4 ovarian = test system: OVCAR-4 ovarian
OVCAR-5 ovarian = test system: OVCAR-5 ovarian
OVCAR-8 ovarian = test system: OVCAR-8 ovarian
RPMI-8226 leukemia = test system: RPMI-8226 leukemia
RXF 393 renal = test system: RXF 393 renal
RXF-631 renal = test system: RXF-631 renal
SF-268 CNS = test system: SF-268 CNS
SF-295 CNS = test system: SF-295 CNS
SF-539 CNS = test system: SF-539 CNS
SK-MEL-2 melanoma = test system: SK-MEL-2 melanoma
SK-MEL-28 melanoma = test system: SK-MEL-28 melanoma
SK-MEL-5 melanoma = test system: SK-MEL-5 melanoma
SK-OV-3 ovarian = test system: SK-OV-3 ovarian
SN12C renal = test system: SN12C renal
SNB-19 CNS = test system: SNB-19 CNS
SNB-75 CNS = test system: SNB-75 CNS
SNB-78 CNS = test system: SNB-78 CNS
SR leukemia = test system: SR leukemia
SW-620 colon = test system: SW-620 colon
TK-10 renal = test system: TK-10 renal
U251 CNS = test system: U251 CNS
UACC-257 melanoma = test system: UACC-257 melanoma
UACC-62 melanoma = test system: UACC-62 melanoma
UO-31 renal = test system: UO-31 renal
786-0 renal = test system: 786-0 renal
XF 498 CNS = test system: XF 498 CNS

Cc1ccccc1OCC(COC(=O)Nc1ccccc1)OC(=O)Nc1ccccc1 (configuration not stated)
TGI (A498 renal): > 100 µM
TGI (A549 NSCLC): > 100 µM
TGI (ACHN renal): > 100 µM
TGI (CAKI-1 renal): > 100 µM
TGI (CCRF-CEM leukemia): > 100 µM
TGI (COLO 205 colon): > 100 µM
TGI (DLD-1 colon): > 100 µM
TGI (DMS 114 small cell lung): > 100 µM
TGI (DMS 273 small cell lung): > 100 µM
TGI (EKVX NSCLC): > 100 µM
TGI (HCC-2998 colon): > 100 µM
TGI (HCT-116 colon): > 100 µM
TGI (HCT-15 colon): > 100 µM
TGI (HL-60(TB) leukemia): 68.7 µM
TGI (HOP-18 NSCLC): 86.6 µM
TGI (HOP-62 NSCLC): > 100 µM
TGI (HOP-92 NSCLC): 38.5 µM
TGI (HT29 colon): > 100 µM
TGI (IGROV1 ovarian): > 100 µM
TGI (K-562 leukemia): 27.8 µM
TGI (KM12 colon): > 100 µM
TGI (KM20L2 colon): > 100 µM
TGI (LOX IMVI melanoma): 55.9 µM
TGI (LXFL 529 NSCLC): > 100 µM
TGI (M14 melanoma): > 100 µM
TGI (M19-MEL melanoma): > 100 µM
TGI (MALME-3M melanoma): > 100 µM
TGI (MOLT-4 leukemia): > 100 µM
TGI (NCI-H226 lung): > 100 µM
TGI (NCI-H23 lung): > 100 µM
TGI (NCI-H460 lung): > 100 µM
TGI (NCI-H522 lung): > 100 µM
TGI (OVCAR-3 ovarian): > 100 µM
TGI (OVCAR-4 ovarian): > 100 µM
TGI (OVCAR-5 ovarian): > 100 µM
TGI (OVCAR-8 ovarian): > 100 µM
TGI (RPMI-8226 leukemia): > 100 µM
TGI (RXF 393 renal): 43.5 µM
TGI (RXF-631 renal): > 100 µM
TGI (SF-268 CNS): > 100 µM
TGI (SF-295 CNS): > 100 µM
TGI (SF-539 CNS): 15.4 µM
TGI (SK-MEL-2 melanoma): > 100 µM
TGI (SK-MEL-28 melanoma): > 100 µM
TGI (SK-MEL-5 melanoma): > 100 µM
TGI (SK-OV-3 ovarian): > 100 µM
TGI (SN12C renal): > 100 µM
TGI (SNB-19 CNS): 89.4 µM
TGI (SNB-75 CNS): 38.3 µM
TGI (SNB-78 CNS): 79 µM
TGI (SR leukemia): > 100 µM
TGI (SW-620 colon): > 100 µM
TGI (TK-10 renal): > 100 µM
TGI (U251 CNS): > 100 µM
TGI (UACC-257 melanoma): > 100 µM
TGI (UACC-62 melanoma): > 100 µM
TGI (UO-31 renal): > 100 µM

CN(CC(=O)O)S(=O)(=O)c1ccc(F)cc1
TGI (786-0 renal): > 100 µM
TGI (A498 renal): > 100 µM
TGI (A549 NSCLC): > 100 µM
TGI (ACHN renal): > 100 µM
TGI (CAKI-1 renal): > 100 µM
TGI (CCRF-CEM leukemia): > 100 µM
TGI (COLO 205 colon): > 100 µM
TGI (DLD-1 colon): > 100 µM
TGI (DMS 273 small cell lung): > 100 µM
TGI (EKVX NSCLC): > 100 µM
TGI (HCC-2998 colon): > 100 µM
TGI (HCT-15 colon): > 100 µM
TGI (HL-60(TB) leukemia): > 100 µM
TGI (HOP-18 NSCLC): > 100 µM
TGI (HOP-92 NSCLC): > 100 µM
TGI (HT29 colon): > 100 µM
TGI (IGROV1 ovarian): > 100 µM
TGI (K-562 leukemia): > 100 µM
TGI (KM12 colon): > 100 µM
TGI (KM20L2 colon): > 100 µM
TGI (LOX IMVI melanoma): > 100 µM
TGI (LXFL 529 NSCLC): > 100 µM
TGI (M14 melanoma): > 100 µM
TGI (M19-MEL melanoma): > 100 µM
TGI (MALME-3M melanoma): > 100 µM
TGI (MOLT-4 leukemia): > 100 µM
TGI (NCI-H23 lung): > 100 µM
TGI (NCI-H460 lung): > 100 µM
TGI (NCI-H522 lung): > 100 µM
TGI (OVCAR-3 ovarian): > 100 µM
TGI (OVCAR-4 ovarian): > 100 µM
TGI (OVCAR-5 ovarian): > 100 µM
TGI (OVCAR-8 ovarian): > 100 µM
TGI (RPMI-8226 leukemia): > 100 µM
TGI (RXF 393 renal): > 100 µM
TGI (RXF-631 renal): > 100 µM
TGI (SF-268 CNS): > 100 µM
TGI (SF-295 CNS): > 100 µM
TGI (SF-539 CNS): > 100 µM
TGI (SK-MEL-2 melanoma): > 100 µM
TGI (SK-MEL-28 melanoma): > 100 µM
TGI (SK-MEL-5 melanoma): > 100 µM
TGI (SK-OV-3 ovarian): > 100 µM
TGI (SN12C renal): > 100 µM
TGI (SNB-19 CNS): > 100 µM
TGI (SNB-75 CNS): > 100 µM
TGI (SW-620 colon): > 100 µM
TGI (TK-10 renal): > 100 µM
TGI (U251 CNS): > 100 µM
TGI (UACC-257 melanoma): > 100 µM
TGI (UACC-62 melanoma): > 100 µM
TGI (UO-31 renal): > 100 µM
TGI (XF 498 CNS): > 100 µM

Cc1c(Cl)ccc2c1NC(=O)C2(O)CC(=O)c1ccc2ccccc2c1 (configuration not stated)
TGI (786-0 renal): > 100 µM
TGI (A498 renal): > 100 µM
TGI (A549 NSCLC): > 100 µM
TGI (ACHN renal): > 100 µM
TGI (CAKI-1 renal): > 100 µM
TGI (CCRF-CEM leukemia): > 100 µM
TGI (COLO 205 colon): > 100 µM
TGI (DLD-1 colon): > 100 µM
TGI (DMS 114 small cell lung): 58.4 µM
TGI (EKVX NSCLC): > 100 µM
TGI (HCC-2998 colon): > 100 µM
TGI (HCT-116 colon): > 100 µM
TGI (HCT-15 colon): > 100 µM
TGI (HOP-18 NSCLC): > 100 µM
TGI (HOP-62 NSCLC): > 100 µM
TGI (HOP-92 NSCLC): > 100 µM
TGI (HT29 colon): > 100 µM
TGI (IGROV1 ovarian): > 100 µM
TGI (K-562 leukemia): > 100 µM
TGI (KM12 colon): > 100 µM
TGI (KM20L2 colon): > 100 µM
TGI (LOX IMVI melanoma): > 100 µM
TGI (M14 melanoma): > 100 µM
TGI (MALME-3M melanoma): > 100 µM
TGI (MOLT-4 leukemia): 89.5 µM
TGI (NCI-H226 lung): > 100 µM
TGI (NCI-H23 lung): > 100 µM
TGI (NCI-H460 lung): > 100 µM
TGI (NCI-H522 lung): 61.7 µM
TGI (OVCAR-3 ovarian): > 100 µM
TGI (OVCAR-4 ovarian): > 100 µM
TGI (OVCAR-5 ovarian): > 100 µM
TGI (OVCAR-8 ovarian): > 100 µM
TGI (RPMI-8226 leukemia): 46.7 µM
TGI (RXF 393 renal): 88.9 µM
TGI (RXF-631 renal): > 100 µM
TGI (SF-268 CNS): > 100 µM
TGI (SF-295 CNS): > 100 µM
TGI (SF-539 CNS): > 100 µM
TGI (SK-MEL-2 melanoma): > 100 µM
TGI (SK-MEL-28 melanoma): > 100 µM
TGI (SK-OV-3 ovarian): > 100 µM
TGI (SN12C renal): > 100 µM
TGI (SNB-19 CNS): > 100 µM
TGI (SNB-75 CNS): 54.2 µM
TGI (SW-620 colon): > 100 µM
TGI (TK-10 renal): > 100 µM
TGI (U251 CNS): > 100 µM
TGI (UACC-257 melanoma): > 100 µM
TGI (UACC-62 melanoma): > 100 µM
TGI (UO-31 renal): > 100 µM
TGI (XF 498 CNS): > 100 µM
